Source: patent publication US20210113501A1, “METHOD OF ADMINISTERING BETA-HYDROXY-BETA-METHYLBUTYRATE (HMB)” (Metabolic Technologies, Inc., priority 2009, published 2021)

Assay: Study 2 blood chemistry
Type: in vivo, human
Settings: for Aspartate Aminotransferase / Gamma-glutamyl: in U/L (unit assumed)
Experimental: Study 2 design. Study 2 was conducted similar to study 1 with the following modifications. In study 2, plasma levels of HMB were measured for 1440 min (24 h) and total urine collection was also performed for measurement of urinary HMB excretion during this period. After the 180 min blood sample, the subjects were allowed to leave the laboratory and were instructed to return to the laboratory for additional blood samples at 360, 720, and 1440 min after the ingestion of the supplement. As in study 1, each subject took each of the treatments with at least a one week washout period between treatments. Samples were again stored frozen at −70° C. for analysis of plasma and urinary HMB concentrations. Pre-ingestion, 180 min and 1440 min blood samples were again assayed for the same measurements already for study 1. Subjects were provided with a standardized lunch after the 180 min blood sampling and instructed to eat this at approximately 240 min post ingestion. Following the 720 min blood sample, subjects were instructed to eat a normal evening meal before 10 pm. Subjects reported back to the laboratory the following morning for the fasted 1440 min blood sample. A urine collection container was provided and subjects collected all urine produced during the experimental 24 h experimental period. The urine was stored refrigerated when not being collected. Urine volumes were measured and samples of the total urine collection were taken and stored frozen at −70° C. until analyzed for HMB.
The data were analyzed using a crossover design with Proc GLM in SAS. (45) For the timed sampling of plasma HMB a repeated measures polynomial model was used. The model included subject, order, and treatment main effects and time by treatment interaction where appropriate. For other parameters Proc GLM was also used with subject, order, and treatment main effects and the p values are reported for the treatment main effect. Statistical significance was determined for p<0.05 and a trend was determined for 0.05<p<0.10.

For `CC(C)(O)CC(=O)[O-].CC(C)(O)CC(=O)[O-].[Ca+2]` [CaHMB, calcium β-hydroxy-β-methylbutryate, reference compound], the “A:G Ratio” value (After (24 h)) was 1.8 ± 0.1, the “Alanine Aminotransferase” value (After (24 h)) was 14.9 ± 2.2 IU/L and the Albumin (After (24 h)) was 4.2 ± 0.1 g/dL. The “Alkaline Phosphatase” value (After (24 h)) was 66.8 ± 6.9 IU/L, the “Blood Urea Nitrogen” value (After (24 h)) was 13.4 ± 1.0 mg/dL and the CO2 (After (24 h)) was 27.3 ± 0.6 mEq/L. For the same compound, the Chloride (After (24 h)) was 103.0 ± 0.5 mEq/L, the “Cholesterol Ratio” value (After (24 h)) was 3.1 ± 0.2 and the Creatinine (After (24 h)) was 1.0 ± 0.1 mg/dL. The “Direct Bilirubin” value (After (24 h)) was 0.1 ± 0.04 mg/dL, the Globulin (After (24 h)) was 2.4 ± 0.1 g/dL and the Glucose (After (24 h)) was 80.3 ± 2.4 mg/dL. For the same compound, the HDL (After (24 h)) was 54.0 ± 3.5 mg/dL, the Iron (After (24 h)) was 59.9 ± 12.2 µg/dL and the “Iron Binding Capacity” value (After (24 h)) was 377.5 ± 30.3 µg/dL. The “Iron Saturation” value (After (24 h)) was 17.5 ± 4.2%, the LDL (After (24 h)) was 88.6 ± 5.9 mg/dL and the “Lactate Dehydrogenase” value (After (24 h)) was 142.4 ± 10.5 IU/L. The Phosphorus (After (24 h)) was 4.4 ± 0.1 mg/dL, the Potassium (After (24 h)) was 4.7 ± 0.1 mEq/L and the Protein (After (24 h)) was 6.5 ± 0.2 g/dL. The Sodium (After (24 h)) was 141.4 ± 0.5 mEq/L, the “Total Bilirubin” value (After (24 h)) was 0.5 ± 0.2 mg/dL and the “Total Cholesterol” value (After (24 h)) was 162.9 ± 7.1 mg/dL. The Triglycerides (After (24 h)) was 106.9 ± 17.6 mg/dL, the UIBC (After (24 h)) was 317.6 ± 38.3 µg/dL and the “Uric Acid” value (After (24 h)) was 4.2 ± 0.5 mg/dL. The “Aspartate Aminotransferase” value (After (24 h)) was 20.0 ± 1.1, the Gamma-glutamyl (After (24 h)) was 14.3 ± 1.4 and the “A:G Ratio” value (Before) was 1.9 ± 0.1. The “Alanine Aminotransferase” value (Before) was 15.4 ± 1.8 IU/L, the Albumin (Before) was 4.1 ± 0.1 g/dL and the “Alkaline Phosphatase” value (Before) was 65.5 ± 7.3 IU/L. For the same compound, the “Blood Urea Nitrogen” value (Before) was 14.8 ± 1.4 mg/dL, the CO2 (Before) was 24.9 ± 0.6 mEq/L and the Chloride (Before) was 102.4 ± 0.5 mEq/L. For the same compound, the “Cholesterol Ratio” value (Before) was 3.1 ± 0.2, the Creatinine (Before) was 1.0 ± 0.1 mg/dL and the “Direct Bilirubin” value (Before) was 0.2 ± 0.1 mg/dL. It also gave a Globulin (Before) of 2.2 ± 0.1 g/dL, a Glucose (Before) of 70.8 ± 0.8 mg/dL and an HDL (Before) of 52.3 ± 2.7 mg/dL. The Iron (Before) was 99.0 ± 20.0 µg/dL, the “Iron Binding Capacity” value (Before) was 371.8 ± 28.6 µg/dL and the “Iron Saturation” value (Before) was 28.4 ± 5.8%. The LDL (Before) was 88.6 ± 7.2 mg/dL, the “Lactate Dehydrogenase” value (Before) was 161.8 ± 12.6 IU/L and the Phosphorus (Before) was 4.0 ± 0.1 mg/dL. For the same compound, the Potassium (Before) was 4.1 ± 0.1 mEq/L, the Protein (Before) was 6.4 ± 0.2 g/dL and the Sodium (Before) was 139.5 ± 0.8 mEq/L. The “Total Bilirubin” value (Before) was 0.6 ± 0.1 mg/dL, the “Total Cholesterol” value (Before) was 160.4 ± 8.0 mg/dL and the Triglycerides (Before) was 97.4 ± 12.5 mg/dL. For the same compound, the UIBC (Before) was 272.8 ± 39.5 µg/dL, the “Uric Acid” value (Before) was 4.8 ± 0.3 mg/dL and the “A:G Ratio % Change” value (Before to After) was −3.4%. For the same compound, the “Alanine Aminotransferase % Change” value (Before to After) was −3.3%, the “Albumin % Change” value (Before to After) was 0.6% and the “Alkaline Phosphatase % Change” value (Before to After) was 1.9%. For the same compound, the “Aspartate Aminotransferase % Change” value (Before to After) was −11.6%, the “Blood Urea Nitrogen % Change” value (Before to After) was −9.3% and the “CO2 % Change” value (Before to After) was 9.5%. For the same compound, the “Chloride % Change” value (Before to After) was 0.6%, the “Cholesterol Ratio % Change” value (Before to After) was −0.8% and the “Creatinine % Change” value (Before to After) was −1.5%. The “Direct Bilirubin % Change” value (Before to After) was −37.4%, the “Gamma-glutamyl % Change” value (Before to After) was 1.8% and the “Globulin % Change” value (Before to After) was 6.7%. The “Glucose % Change” value (Before to After) was 13.4%, the “HDL % Change” value (Before to After) was 3.3% and the “Iron % Change” value (Before to After) was −39.5%. For the same compound, the “Iron Binding Capacity % Change” value (Before to After) was 1.5%, the “Iron Saturation % Change” value (Before to After) was −38.3% and the “LDL % Change” value (Before to After) was 0.0%. The “Lactate Dehydrogenase % Change” value (Before to After) was −12.0%, the “Phosphorus % Change” value (Before to After) was 10.6% and the “Potassium % Change” value (Before to After) was 14.8%. The “Protein % Change” value (Before to After) was 2.8%, the “Sodium % Change” value (Before to After) was 1.3% and the “Total Bilirubin % Change” value (Before to After) was −17.8%. The “Total Cholesterol % Change” value (Before to After) was 1.6%, the “Triglycerides % Change” value (Before to After) was 9.8% and the “UIBC % Change” value (Before to After) was 16.5%. The “Uric Acid % Change” value (Before to After) was −12.0%, the “Aspartate Aminotransferase” value (Before) was 22.6 ± 1.4 and the Gamma-glutamyl (Before) was 14.0 ± 1.9.
